8 compounds from ChEMBL document CHEMBL2331477, “Effect of helical conformation and side chain structure on γ-secretase inhibition by β-peptide foldamers: insight into substrate recognition” (J Med Chem, 2013) can be followed below.

The target of test [1] is T1, Gamma-secretase (Homo sapiens) (UniProt Q96BI3+Q9NZ42+Q8WW43+P49768+Q92542+P49810). The test is described as follows: Inhibition of gamma-secretase (unknown origin) expressed in N2a NL/N cells coexpressing betaAPPNL and NotchdeltaE assessed as Abeta42 secretion at 100 nM by ELISA. In kind it is cell-based. (An ELISA detects its analyte on a solid surface through an enzyme-linked reagent.)

Test [2] has as its target T1, Gamma-secretase (Homo sapiens). The test is described as follows: Inhibition of gamma-secretase (unknown origin) expressed in N2a NL/N cells coexpressing betaAPPNL and NotchdeltaE assessed as Abeta40 secretion at 100 nM by ELISA. In kind it is cell-based.

The source made the active and inactive calls. The rule behind the calls is not given here.

Consider `CC(=O)N[C@H]1CCC[C@@H]1C(=O)N[C@H]1CCC[C@@H]1C(=O)N[C@@H](CCC(N)=O)CC(=O)N[C@H]1CCC[C@@H]1C(=O)N[C@H]1CCC[C@@H]1C(=O)N[C@H]1CCC[C@@H]1C(=O)N[C@H]1CCC[C@@H]1C(=O)N[C@H]1CCC[C@@H]1C(=O)N[C@H]1CCC[C@@H]1C(=O)N[C@H]1CCC[C@@H]1C(=O)N[C@H]1CCC[C@@H]1C(=O)N[C@H]1CCC[C@@H]1C(N)=O`, for which the inhibition result in test [1] and in test [2] was “Active” each time.

As to `CC(=O)N[C@H]1CCC[C@@H]1C(=O)N[C@H]1CCC[C@@H]1C(=O)N[C@H]1CCC[C@@H]1C(=O)N[C@H]1CCC[C@@H]1C(=O)N[C@H]1CCC[C@@H]1C(=O)N[C@H]1CCC[C@@H]1C(=O)N[C@H]1CCC[C@@H]1C(=O)N[C@H]1CCC[C@@H]1C(=O)N[C@@H](CCCCN)CC(=O)N[C@H]1CCC[C@@H]1C(=O)N[C@H]1CCC[C@@H]1C(=O)N[C@H]1CCC[C@@H]1C(N)=O`, the inhibition result in test [1] and in test [2] was “inactive” each time.

As for `CC(=O)N[C@H]1CCC[C@@H]1C(=O)N[C@H]1CCC[C@@H]1C(=O)N[C@@H](CC(=O)N[C@H]1CCC[C@@H]1C(=O)N[C@H]1CCC[C@@H]1C(=O)N[C@H]1CCC[C@@H]1C(=O)N[C@H]1CCC[C@@H]1C(=O)N[C@H]1CCC[C@@H]1C(=O)N[C@H]1CCC[C@@H]1C(=O)N[C@H]1CCC[C@@H]1C(=O)N[C@H]1CCC[C@@H]1C(=O)N[C@H]1CCC[C@@H]1C(N)=O)[C@@H](C)O`, the inhibition entry in test [1] and in test [2] was “inactive” each time.

Consider `CC(=O)N[C@H]1CCC[C@@H]1C(=O)N[C@H]1CCC[C@@H]1C(=O)N[C@@H](CS)CC(=O)N[C@H]1CCC[C@@H]1C(=O)N[C@H]1CCC[C@@H]1C(=O)N[C@H]1CCC[C@@H]1C(=O)N[C@H]1CCC[C@@H]1C(=O)N[C@H]1CCC[C@@H]1C(=O)N[C@H]1CCC[C@@H]1C(=O)N[C@H]1CCC[C@@H]1C(=O)N[C@H]1CCC[C@@H]1C(=O)N[C@H]1CCC[C@@H]1C(N)=O`, for which the inhibition entry in test [1] and in test [2] was “Active” in each case.

Consider `CC(=O)N[C@H]1CCC[C@@H]1C(=O)N[C@H]1CCC[C@@H]1C(=O)N[C@H]1CCC[C@@H]1C(=O)N[C@H]1CCC[C@@H]1C(=O)N[C@H]1CCC[C@@H]1C(=O)N[C@@H](CC(=O)N[C@H]1CCC[C@@H]1C(=O)N[C@H]1CCC[C@@H]1C(=O)N[C@H]1CCC[C@@H]1C(=O)N[C@H]1CCC[C@@H]1C(=O)N[C@H]1CCC[C@@H]1C(=O)N[C@H]1CCC[C@@H]1C(N)=O)[C@@H](C)O`, for which the inhibition result in test [1] and in test [2] was “inactive” in each case.

With `CC(=O)N[C@H]1CCC[C@@H]1C(=O)N[C@H]1CCC[C@@H]1C(=O)N[C@H]1CCC[C@@H]1C(=O)N[C@H]1CCC[C@@H]1C(=O)N[C@H]1CCC[C@@H]1C(=O)N[C@@H](CCCCN)CC(=O)N[C@H]1CCC[C@@H]1C(=O)N[C@H]1CCC[C@@H]1C(=O)N[C@H]1CCC[C@@H]1C(=O)N[C@H]1CCC[C@@H]1C(=O)N[C@H]1CCC[C@@H]1C(=O)N[C@H]1CCC[C@@H]1C(N)=O`, the inhibition result in test [1] and in test [2] was “inactive” throughout.

Turning to `CC(=O)N[C@H]1CCC[C@@H]1C(=O)N[C@H]1CCC[C@@H]1C(=O)N[C@H]1CCC[C@@H]1C(=O)N[C@H]1CCC[C@@H]1C(=O)N[C@H]1CCC[C@@H]1C(=O)N[C@H]1CCC[C@@H]1C(=O)N[C@H]1CCC[C@@H]1C(=O)N[C@H]1CCC[C@@H]1C(=O)NC(CO)CC(=O)N[C@H]1CCC[C@@H]1C(=O)N[C@H]1CCC[C@@H]1C(=O)N[C@H]1CCC[C@@H]1C(N)=O` (single isomer, unassigned), the inhibition entry in test [1] and in test [2] was “inactive” each time.

With `CC(=O)N[C@H]1CCC[C@@H]1C(=O)N[C@H]1CCC[C@@H]1C(=O)N[C@H]1CCC[C@@H]1C(=O)N[C@H]1CCC[C@@H]1C(=O)N[C@H]1CCC[C@@H]1C(=O)N[C@@H](CC(N)=O)CC(=O)N[C@H]1CCC[C@@H]1C(=O)N[C@H]1CCC[C@@H]1C(=O)N[C@H]1CCC[C@@H]1C(=O)N[C@H]1CCC[C@@H]1C(=O)N[C@H]1CCC[C@@H]1C(=O)N[C@H]1CCC[C@@H]1C(N)=O`, the inhibition result in test [1] and in test [2] was “inactive” throughout.
